Active and inactive are the calls of the source. The calls are words filed in the database; no cut-off is given here.
Legend:
[1] = molecular target: Glucocorticoid receptor (Homo sapiens) (UniProt P04150); assay: Displacement of [3H]-dexamethasone from glucocorticoid receptor (unknown origin) at 1 uM
[2] = Metabolic stability in human microsomes assessed as amount of parent compound remaining after 5 mins; type: ADME, Microsome; conditions: read-out: Stability
[3] = molecular target: Histamine H1 receptor (Homo sapiens) (UniProt P35367); assay: Displacement of [3H]-Pyrilamine from histamine H1 receptor (unknown origin) at 1 uM
[4] = Displacement of [3H]-(+)-MK 801 from PCP binding site of NMDA receptor in pig brain cortex membranes after 120 mins by liquid scintillation spectrometry; type: cell membranes, Sus scrofa
[5] = molecular target: Alpha-1D adrenergic receptor (Homo sapiens) (UniProt P25100); assay: Displacement of [3H]-prazosin from adrenergic alpha1D receptor (unknown origin) at 1 uM
Chain of Alpha-1D adrenergic receptor (Homo sapiens) (P25100 whole entry): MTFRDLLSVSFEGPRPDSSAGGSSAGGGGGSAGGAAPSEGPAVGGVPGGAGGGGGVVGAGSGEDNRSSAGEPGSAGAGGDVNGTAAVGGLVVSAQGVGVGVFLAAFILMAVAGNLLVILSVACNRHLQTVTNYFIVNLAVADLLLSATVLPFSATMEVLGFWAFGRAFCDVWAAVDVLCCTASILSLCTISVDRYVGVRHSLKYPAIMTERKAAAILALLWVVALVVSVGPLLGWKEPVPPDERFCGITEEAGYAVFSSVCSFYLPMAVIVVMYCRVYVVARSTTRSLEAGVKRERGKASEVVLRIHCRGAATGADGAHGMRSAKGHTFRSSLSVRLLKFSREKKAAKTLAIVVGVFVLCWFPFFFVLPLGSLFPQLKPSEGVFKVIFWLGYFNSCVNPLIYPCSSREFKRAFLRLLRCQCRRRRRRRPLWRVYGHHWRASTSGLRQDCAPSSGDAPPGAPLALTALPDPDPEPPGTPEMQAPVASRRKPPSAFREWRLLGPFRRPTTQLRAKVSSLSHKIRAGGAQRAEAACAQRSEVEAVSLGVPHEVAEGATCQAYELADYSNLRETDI

[6] = molecular target: Neuropeptide Y receptor type 2 (Homo sapiens) (UniProt P49146); assay: Displacement of [125I]-Peptide YY from neuropeptide Y Y2 receptor (unknown origin) at 1 uM
[7] = molecular target: T1, Sigma intracellular receptor 2 (Rattus norvegicus, UniProt Q5U3Y7); assay: Displacement of [3H]-DTG from sigma2 receptor in rat liver membranes after 120 mins by liquid scintillation counting; type: cell membranes, Membrane
T1 sequence (Q5U3Y7 whole entry): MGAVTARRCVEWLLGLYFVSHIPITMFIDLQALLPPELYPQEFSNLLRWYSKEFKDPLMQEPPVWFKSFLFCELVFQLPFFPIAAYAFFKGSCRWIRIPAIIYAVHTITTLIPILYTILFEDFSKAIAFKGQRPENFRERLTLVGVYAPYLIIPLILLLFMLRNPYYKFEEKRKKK

[8] = molecular target: CYP2D6 (Homo sapiens, UniProt P10635); assay: Inhibition on CYP2D6 (unknown origin) at 1 uM; type: ADME
[9] = molecular target: CYP3A4 (Homo sapiens, UniProt P08684); assay: Inhibition on CYP3A4 (unknown origin) at 1 uM; type: ADME
[10] = molecular target: Estrogen receptor (Homo sapiens) (UniProt P03372); assay: Displacement of [3H]-estradiol from estrogen ERalpha receptor (unknown origin) at 1 uM
[11] = molecular target: CYP2C9 (Homo sapiens, UniProt P11712); assay: Inhibition on CYP2C9 (unknown origin) at 1 uM; type: ADME
Chain of CYP2C9 (P11712 whole entry): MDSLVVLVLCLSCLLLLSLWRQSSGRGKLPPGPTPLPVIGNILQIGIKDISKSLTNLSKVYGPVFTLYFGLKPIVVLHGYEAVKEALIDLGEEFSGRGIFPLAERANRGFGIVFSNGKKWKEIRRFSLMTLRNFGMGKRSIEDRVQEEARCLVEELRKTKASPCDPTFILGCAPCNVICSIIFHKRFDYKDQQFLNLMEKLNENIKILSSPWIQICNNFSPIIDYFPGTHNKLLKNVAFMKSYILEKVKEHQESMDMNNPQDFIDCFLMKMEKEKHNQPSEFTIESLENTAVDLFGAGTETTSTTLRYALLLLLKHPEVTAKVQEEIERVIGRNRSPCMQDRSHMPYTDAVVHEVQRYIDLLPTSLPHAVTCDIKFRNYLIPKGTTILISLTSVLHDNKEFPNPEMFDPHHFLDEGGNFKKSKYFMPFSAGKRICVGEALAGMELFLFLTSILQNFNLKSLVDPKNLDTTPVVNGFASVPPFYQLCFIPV

[12] = molecular target: Adenosine receptor A1 (Homo sapiens) (UniProt P30542); assay: Displacement of [3H]-DPCPX from adenosine A1 receptor (unknown origin) at 1 uM
Chain of Adenosine receptor A1 (Homo sapiens) (P30542 whole entry): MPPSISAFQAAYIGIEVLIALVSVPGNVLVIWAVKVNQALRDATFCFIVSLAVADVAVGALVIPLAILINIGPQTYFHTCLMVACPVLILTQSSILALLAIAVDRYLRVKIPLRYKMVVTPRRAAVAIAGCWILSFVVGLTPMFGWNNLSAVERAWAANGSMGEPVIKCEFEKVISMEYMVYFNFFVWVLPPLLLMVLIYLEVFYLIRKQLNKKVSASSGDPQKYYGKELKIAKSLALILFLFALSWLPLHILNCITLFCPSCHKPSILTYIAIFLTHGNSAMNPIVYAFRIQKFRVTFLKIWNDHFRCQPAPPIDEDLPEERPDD

[13] = molecular target: Sigma non-opioid intracellular receptor 1 (Cavia porcellus) (UniProt Q60492); assay: Agonist activity at sigma1 receptor assessed as potentiation of electrically stimulated contractions of the guinea pig vas deferens at 30 uM relative to (S)-3-PPP
Chain of Sigma non-opioid intracellular receptor 1 (Cavia porcellus) (Q60492 whole entry): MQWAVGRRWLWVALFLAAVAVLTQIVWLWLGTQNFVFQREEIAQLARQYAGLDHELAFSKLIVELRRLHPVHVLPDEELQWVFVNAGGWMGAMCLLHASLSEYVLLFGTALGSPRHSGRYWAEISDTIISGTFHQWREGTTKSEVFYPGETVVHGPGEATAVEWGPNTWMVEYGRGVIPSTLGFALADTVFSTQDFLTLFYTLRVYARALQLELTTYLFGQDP

[14] = test system: Mus musculus; assay: Toxicity in mouse assessed as increase in abdominal tone at 100 mg/kg, ip by Irwin test; type: organism-based; conditions: in vivo
[15] = test system: Mus musculus; assay: Cognition enhancing effect in mouse assessed as reversal of scopolamine-induced amnesia at 30 mg/kg, ip; type: functional, organism-based
[16] = species: Homo sapiens; assay: Displacement of [3H]-Idazoxan from imidazoline I2 receptor (unknown origin) at 1 uM
[17] = molecular target: Metabotropic glutamate receptor 5 (Homo sapiens) (UniProt P41594); assay: Displacement of [3H]-quisqulic acid from metabotropic glutamate receptor 5 (unknown origin) at 1 uM
[18] = molecular target: Platelet-activating factor receptor (Homo sapiens) (UniProt P25105); assay: Displacement of [3H]-PAF from platelet activating factor receptor (unknown origin) at 1 uM
Chain of Platelet-activating factor receptor (Homo sapiens) (P25105 whole entry): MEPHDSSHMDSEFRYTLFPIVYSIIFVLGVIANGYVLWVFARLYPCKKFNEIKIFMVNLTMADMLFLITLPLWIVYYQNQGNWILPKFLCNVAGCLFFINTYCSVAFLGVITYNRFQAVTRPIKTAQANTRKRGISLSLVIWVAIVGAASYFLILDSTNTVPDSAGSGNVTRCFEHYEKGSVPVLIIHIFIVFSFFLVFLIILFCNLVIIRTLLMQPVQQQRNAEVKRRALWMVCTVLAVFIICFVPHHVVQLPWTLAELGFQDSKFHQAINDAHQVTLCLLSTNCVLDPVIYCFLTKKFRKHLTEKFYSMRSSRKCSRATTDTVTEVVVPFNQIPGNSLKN

[19] = species: Homo sapiens; assay: Displacement of [3H]-sp iperone from dopamine D4.2 receptor (unknown origin) at 1 uM
[20] = species: Homo sapiens; assay: Displacement of [3H]-CGP-39653 from glutamate […] receptor (unknown origin) at 1 uM
[21] = molecular target: Histamine H3 receptor (Homo sapiens) (UniProt Q9Y5N1); assay: Displacement of [3H]-R(-)-alpha-methylhistamine from histamine H3 receptor (unknown origin) at 1 uM
Chain of Histamine H3 receptor (Homo sapiens) (Q9Y5N1 whole entry): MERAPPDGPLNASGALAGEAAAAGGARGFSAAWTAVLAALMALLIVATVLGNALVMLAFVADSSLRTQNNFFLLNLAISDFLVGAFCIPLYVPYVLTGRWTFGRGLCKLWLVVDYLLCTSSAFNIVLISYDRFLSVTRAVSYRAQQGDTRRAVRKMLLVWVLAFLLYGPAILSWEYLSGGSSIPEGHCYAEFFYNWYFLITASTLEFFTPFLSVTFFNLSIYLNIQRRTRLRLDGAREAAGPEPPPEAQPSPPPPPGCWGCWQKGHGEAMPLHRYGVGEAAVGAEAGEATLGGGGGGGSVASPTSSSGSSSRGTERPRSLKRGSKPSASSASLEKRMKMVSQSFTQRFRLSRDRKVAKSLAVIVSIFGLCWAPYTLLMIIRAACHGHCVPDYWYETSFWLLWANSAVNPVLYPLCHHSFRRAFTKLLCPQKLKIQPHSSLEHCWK

[22] = molecular target: Histamine H2 receptor (Homo sapiens, UniProt P25021); assay: Displacement of [125I]-aminopotentidine receptor from histamine H2 receptor (unknown origin)
Chain of Histamine H2 receptor (P25021 whole entry): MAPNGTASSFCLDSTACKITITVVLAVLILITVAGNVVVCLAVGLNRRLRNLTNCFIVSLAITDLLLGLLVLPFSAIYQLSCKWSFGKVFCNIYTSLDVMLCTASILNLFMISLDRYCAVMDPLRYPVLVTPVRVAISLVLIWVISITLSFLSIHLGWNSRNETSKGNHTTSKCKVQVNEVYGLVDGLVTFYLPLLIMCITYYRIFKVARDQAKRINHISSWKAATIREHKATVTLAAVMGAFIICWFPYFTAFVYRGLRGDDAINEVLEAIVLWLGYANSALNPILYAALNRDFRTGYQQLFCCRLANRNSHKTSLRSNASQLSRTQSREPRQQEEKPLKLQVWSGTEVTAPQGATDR

[23] = molecular target: Neuropeptide Y receptor type 1 (Homo sapiens) (UniProt P25929); assay: Displacement of [125I]-Peptide YY from neuropeptide Y Y1 receptor (unknown origin) at 1 uM
Chain of Neuropeptide Y receptor type 1 (Homo sapiens) (P25929 whole entry): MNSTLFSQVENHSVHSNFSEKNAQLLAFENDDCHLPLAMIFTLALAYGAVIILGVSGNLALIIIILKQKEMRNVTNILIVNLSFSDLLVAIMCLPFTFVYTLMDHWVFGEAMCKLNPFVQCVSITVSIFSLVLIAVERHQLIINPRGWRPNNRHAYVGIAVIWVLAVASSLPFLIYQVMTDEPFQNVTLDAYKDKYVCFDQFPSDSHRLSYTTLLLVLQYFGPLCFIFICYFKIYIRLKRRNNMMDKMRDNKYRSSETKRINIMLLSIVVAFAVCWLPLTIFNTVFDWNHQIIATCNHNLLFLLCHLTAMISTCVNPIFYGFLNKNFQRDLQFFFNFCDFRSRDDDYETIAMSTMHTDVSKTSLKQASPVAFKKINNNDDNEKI

[24] = molecular target: Delta-type opioid receptor (Homo sapiens) (UniProt P41143); assay: Displacement of [3H]-naltrindole from delta opioid receptor (unknown origin) at 1 uM
[25] = molecular target: Melanocortin receptor 3 (Homo sapiens) (UniProt P41968); assay: Displacement of [125I]-NDP-alpha-MSH from melanocortin MC3 receptor (unknown origin) at 1 uM
[26] = molecular target: Alpha-1B adrenergic receptor (Homo sapiens) (UniProt P35368); assay: Displacement of [3H]-prazosin from adrenergic alpha1B receptor (unknown origin) at 1 uM
Chain of Alpha-1B adrenergic receptor (Homo sapiens) (P35368 whole entry): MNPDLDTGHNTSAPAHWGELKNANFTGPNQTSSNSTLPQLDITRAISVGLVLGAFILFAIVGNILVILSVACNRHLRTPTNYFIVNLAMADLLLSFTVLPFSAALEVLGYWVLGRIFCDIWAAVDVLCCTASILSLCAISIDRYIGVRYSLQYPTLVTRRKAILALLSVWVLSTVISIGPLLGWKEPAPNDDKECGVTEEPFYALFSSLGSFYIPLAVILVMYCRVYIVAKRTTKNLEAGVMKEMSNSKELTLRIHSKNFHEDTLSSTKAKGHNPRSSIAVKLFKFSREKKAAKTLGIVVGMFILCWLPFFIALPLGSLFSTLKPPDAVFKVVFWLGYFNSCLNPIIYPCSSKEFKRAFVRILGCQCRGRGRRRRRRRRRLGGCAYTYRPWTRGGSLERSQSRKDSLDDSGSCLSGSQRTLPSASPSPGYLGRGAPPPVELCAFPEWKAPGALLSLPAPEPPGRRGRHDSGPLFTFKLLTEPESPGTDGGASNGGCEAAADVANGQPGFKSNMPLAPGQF

[27] = molecular target: Alpha-1A adrenergic receptor (Homo sapiens) (UniProt P35348); assay: Displacement of [3H]-prazosin from adrenergic alpha1A receptor (unknown origin) at 1 uM
[28] = molecular target: Alpha-2A adrenergic receptor (Homo sapiens) (UniProt P08913); assay: Displacement of [3H]-MK-912 from adrenergic alpha2A receptor (unknown origin) at 1 uM
[29] = molecular target: Sigma non-opioid intracellular receptor 1 (Cavia porcellus, UniProt Q60492); assay: Displacement of [3H]-pentazocine from sigma1 receptor in guinea pig brain membranes after 120 mins by liquid scintillation counting; type: cell membranes, Membrane
Chain of Sigma non-opioid intracellular receptor 1 (Q60492 whole entry): as the sequence (Q60492 whole entry) above

[30] = molecular target: Substance-P receptor (Homo sapiens) (UniProt P25103); assay: Displacement of [3H]-SR-140333 from tachykinin NK1 receptor (unknown origin) at 1 uM
Chain of Substance-P receptor (Homo sapiens) (P25103 whole entry): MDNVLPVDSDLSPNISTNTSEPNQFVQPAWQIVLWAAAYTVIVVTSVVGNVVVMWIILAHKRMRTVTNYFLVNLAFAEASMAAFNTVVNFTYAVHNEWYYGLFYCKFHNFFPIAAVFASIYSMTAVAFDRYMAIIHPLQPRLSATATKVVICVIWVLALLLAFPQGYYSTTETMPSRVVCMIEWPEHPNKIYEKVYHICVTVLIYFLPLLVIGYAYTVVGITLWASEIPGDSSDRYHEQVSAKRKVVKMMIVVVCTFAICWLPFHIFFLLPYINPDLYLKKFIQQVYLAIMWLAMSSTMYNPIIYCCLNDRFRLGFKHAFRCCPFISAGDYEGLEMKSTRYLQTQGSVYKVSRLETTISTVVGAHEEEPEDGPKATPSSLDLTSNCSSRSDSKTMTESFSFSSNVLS

[31] = molecular target: Epidermal growth factor receptor (Homo sapiens) (UniProt P00533); assay: Displacement of [125I]-EGF from EGF receptor (unknown origin) at 1 uM
[32] = molecular target: Glutamate [NMDA] receptor (Homo sapiens) (UniProt Q05586+Q12879+Q13224+O15399+O60391+Q14957+Q8TCU5); assay: Displacement of [3H]-TCP from glutamate NMDA receptor phencyclidine binding site (unknown origin) at 1 uM

Chain of Glucocorticoid receptor (Homo sapiens) (P04150 whole entry): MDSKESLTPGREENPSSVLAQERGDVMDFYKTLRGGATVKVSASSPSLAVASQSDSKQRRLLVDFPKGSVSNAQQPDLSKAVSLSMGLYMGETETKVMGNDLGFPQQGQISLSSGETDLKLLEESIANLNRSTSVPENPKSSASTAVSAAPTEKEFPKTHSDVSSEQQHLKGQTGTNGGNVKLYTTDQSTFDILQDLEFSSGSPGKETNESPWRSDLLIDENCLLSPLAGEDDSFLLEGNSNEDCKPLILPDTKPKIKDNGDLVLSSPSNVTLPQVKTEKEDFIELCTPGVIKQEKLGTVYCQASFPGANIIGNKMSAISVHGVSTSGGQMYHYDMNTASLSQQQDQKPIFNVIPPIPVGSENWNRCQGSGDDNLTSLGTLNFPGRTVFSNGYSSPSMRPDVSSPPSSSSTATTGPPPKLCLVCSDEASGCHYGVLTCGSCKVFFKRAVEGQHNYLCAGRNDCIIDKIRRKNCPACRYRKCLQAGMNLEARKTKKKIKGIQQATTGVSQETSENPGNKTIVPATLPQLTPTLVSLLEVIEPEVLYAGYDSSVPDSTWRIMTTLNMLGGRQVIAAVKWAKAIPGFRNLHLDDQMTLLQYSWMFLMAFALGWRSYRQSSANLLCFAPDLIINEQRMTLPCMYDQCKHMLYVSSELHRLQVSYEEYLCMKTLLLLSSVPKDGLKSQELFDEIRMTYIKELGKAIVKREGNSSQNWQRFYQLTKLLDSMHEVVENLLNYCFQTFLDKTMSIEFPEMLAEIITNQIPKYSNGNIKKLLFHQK

- inhibition [1]: inactive
- remaining at 5 min [2]: < 50%
- inhibition [3]: inactive
- IC50 [4]: > 1000 nM
- inhibition [5]: inactive
- inhibition [6]: inactive
- Ki [7]: 46 nM
- inhibition at 1 µM [8]: 60%
- inhibition at 1 µM [9]: 7%
- inhibition [10]: inactive
- inhibition at 1 µM [11]: 0%
- inhibition [12]: inactive
- Activity [13]: 29%
- inhibition [16]: inactive
- inhibition [17]: inactive
- inhibition [18]: inactive
- inhibition [19]: inactive
- inhibition [20]: inactive
- inhibition [21]: inactive
- IC50 [22]: 1000 nM
- inhibition [23]: inactive
- inhibition [24]: inactive
- inhibition [25]: inactive
- inhibition [26]: inactive
- inhibition [27]: inactive
- inhibition [28]: inactive
- Ki [29]: 0.86 nM
- inhibition [30]: inactive
- inhibition [31]: inactive
- inhibition [32]: inactive
Structure (SMILES): COc1ccc(CN2CCCN(Cc3ccccc3)[C@@H](C)C2)cc1
- Activity [14]: Toxic
- Activity [15]: Active

Reference: ChEMBL document CHEMBL4043136, “Chiral-pool synthesis of 1,2,4-trisubstituted 1,4-diazepanes as novel σ1 receptor ligands” (Bioorg Med Chem, 2017)
